Source: patent US6296785A, “Indeno-fused photochromic naphthopyrans” (PPG Industries Ohio, Inc., priority 2000, dated 2001)

Key:
Type in all cases: physicochemical
[1] = Relative ΔOD at Saturation Test; conditions: ΔOD at saturation (Band A)/ΔOD at saturation (Band B)×100
Source text: In accordance with the present invention, it has now been discovered that certain novel indeno[2,1-f]naphtho[1,2-b]pyrans having two absorption bands in the activated (colored) state, an acceptable fade rate, high activated intensity, a high coloration rate and a rating of 80 or higher in the Relative ΔOD at Saturation Test may be prepared. The Relative ΔOD at Saturation Test is described in Example 21. The ratings of the test are defined herein as the result obtained when the optical density of band "A" is divided by the optical density of band "B" and multiplied by 100. It is believed that compounds having a rating of 80 or higher are most valuable for formulating neutral grays, greens and browns for commercial photochromic ophthalmic eyeware.
(§1) Testing was done with the photochromic compounds described in Examples 1 through 20 and Comparative Examples 1 through 3 in the following manner. A quantity of photochromic compound calculated to yield a 1.5×10^-3 molal solution was added to a flask containing 50 grams of a monomer blend of 4 parts ethoxylated bisphenol A dimethacrylate (BPA 2EO DMA), 1 part poly(ethylene glycol) 600 dimethacrylate, and 0.033 weight percent 2,2'-azobis(2-methyl propionitrile) (AIBN). The photochromic compound was dissolved into the monomer blend by stirring and gentle heating, if necessary. After a clear solution was obtained, it was poured into a flat sheet mold having the interior dimensions of 2.2 mm×6 inches (15.24 cm)×6 inches (15.24 cm). The mold was sealed and placed in a horizontal air flow, programmable oven programmed to increase the temperature from 40° C. to 95° C. over a 5 hour interval, hold the temperature at 95° C. for 3 hours, lower it to 60° C. over a 2 hour interval and then hold it at 60° C. for 16 hours. After the mold was opened, the polymer sheet was cut using a diamond blade saw into 2 inch (5.1 centimeters) test squares.
(§2) The photochromic test squares of Part A were tested for photochromic response rates on an optical bench. Prior to testing on the optical bench, the photochromic test squares were exposed to 365 nanometer ultraviolet light for about 15 minutes to activate the photochromic compounds and then placed into a 76° C. oven for about 15 minutes to bleach the photochromic compounds. The test squares were then cooled to room temperature, exposed to fluorescent room lighting for at least 2 hours and then kept covered for at least 2 hours prior to testing on an optical bench maintained at 72° F. (22.2° C.). The bench was fitted with a 250 watt Xenon arc lamp, a remote controlled shutter, a copper sulfate bath acting as a heat sink for the arc lamp, a Schott WG-320 nm cut-off filter which removes short wavelength radiation; neutral density filter(s) and a sample holder in which the square to be tested was inserted. The power output of the optical bench, i.e., the dosage of light that the sample lens would be exposed to, was calibrated with a photochromic test square used as a reference standard. […] The UV-A detector was placed into the sample holder and the light output was measured. Adjustments to the power output were made by increasing or decreasing the lamp wattage or by adding or removing neutral density filters in the light path.
Change in optical density (ΔOD) was determined by inserting a test square in the bleached state into the sample holder, adjusting the transmittance scale to 100%, opening the shutter from the Xenon lamp to provide ultraviolet radiation to change the test square from the bleached state to an activated (i.e., darkened) state, measuring the transmittance in the activated state, and calculating the change in optical density according to the formula: ΔOD=log(100/% Ta), where % Ta is the percent transmittance in the activated state and the logarithm is to the base 10. […]

[2] = lambda max (Vis) of activated photochromic test squares in a Varian Cary 3 uv-visible spectrophotometer; conditions: activated form in test square
Protocol: as §1
The lambda max (Vis) is the wavelength in the visible spectrum at which the maximum absorption of the activated (colored) form of the photochromic compound in a test square occurs. The lambda max (Vis) wavelengths reported in Table 1 were determined by testing the photochromic test square polymerizates of Part A in a Varian Cary 3 uv-visible spectrophotometer. The bleach rate (T 1/2) is the time interval in seconds for the absorbance of the activated form of the photochromic compound in the test squares to read one half the highest absorbance at room temperature (72° F., 22.2° C.) after removal of the source of activating light.
For each lambda max visible, the corresponding optical density (Δ OD/Min and Δ OD at saturation) for the desired compounds of the Examples and Comparative Examples are tabulated in Table 1 for the two bands (A and B) of peak absorption for each compound. Table 1 also includes the bleach rate (T 1/2) for each of the compounds as measured at band B. The ratings of the Relative Δ OD at Saturation Test for the bands A and B of each of the Examples and Comparative Examples are calculated as follows: Δ OD at saturation (Band A)/Δ OD at saturation (Band B)×100.

[3] = photochromic response of test squares on an optical bench (sensitivity, saturation optical density, bleach rate); conditions: for ΔOD @ Saturation (Band A) / ΔOD @ Saturation (Band B): UV exposure 15 minutes; for ΔOD @ Saturation (Band A) / Sensitivity ΔOD/MIN (Band A) / ΔOD @ Saturation (Band B) / Sensitivity ΔOD/MIN (Band B): 72° F. (22.2° C.), polymer test square; for Sensitivity ΔOD/MIN (Band A) / Sensitivity ΔOD/MIN (Band B): first five (5) seconds of UV exposure, expressed per minute; for Bleach Rate T 1/2: measured at band B, room temperature (72° F., 22.2° C.) after removal of activating light
Protocol: as §1, §2
A monitoring, collimated beam of light from a tungsten lamp was passed through the square at a small angle (approximately 30°) normal to the square. After passing through the square, the light from the tungsten lamp was directed to a detector through Spectral Energy Corp. GM-200 monochromator set at the previously determined visible lambda max of the photochromic compound being measured. The output signals from the detector were processed by a radiometer.
Change in optical density (ΔOD) was determined by inserting a test square in the bleached state into the sample holder, adjusting the transmittance scale to 100%, opening the shutter from the Xenon lamp to provide ultraviolet radiation to change the test square from the bleached state to an activated (i.e., darkened) state, measuring the transmittance in the activated state, and calculating the change in optical density according to the formula: ΔOD=log(100/% Ta), where % Ta is the percent transmittance in the activated state and the logarithm is to the base 10.
The ΔOD/Min, which represents the sensitivity of the photochromic compound's response to UV light, was measured over the first five (5) seconds of UV exposure, then expressed on a per minute basis. The saturation optical density (ΔOD@ Saturation) was taken under identical conditions as the ΔOD/Min, except UV exposure was continued for 15 minutes. […]

Row | Structure (SMILES) | Relative ΔOD at Saturation (rating) [1] | λ MAX Vis (Band A) [2] [nm] | λ MAX Vis (Band B) [2] [nm] | ΔOD @ Saturation (Band A) [3] | Sensitivity ΔOD/MIN (Band A) [3] | ΔOD @ Saturation (Band B) [3] | Sensitivity ΔOD/MIN (Band B) [3] | Bleach Rate T 1/2 [3] [min]
1 | CCC1(O)c2ccccc2-c2c1c1c(c3ccccc23)OC(c2ccc(OC)cc2)(c2ccc(OC)cc2)C=C1 (centres unmarked) [Comp. Ex. 1, 3,3-di(4-methoxyphenyl)-13-hydroxy-13-ethyl-3H-13H-indeno[2,1-f]naphtho[1,2-b]pyran, reference compound] | 59 | 437 | 562 | 0.16 | 0.21 ΔOD/MIN | 0.27 | 0.29 ΔOD/MIN | 0.783
2 | CCC1(O)c2cc(OC)ccc2-c2c1c1c(c3cc(OC)ccc23)OC(c2ccc(OC)cc2)(c2ccc(OC)cc2)C=C1 (centres unmarked) [Comp. Ex. 2, 3,3-di(4-methoxyphenyl)-6,11-dimethoxy-13-hydroxy-13-ethyl-3H-13H-indeno[2,1-f]naphtho[1,2-b]pyran, reference compound] | 70 | 499 | 607 | 0.36 | 0.22 ΔOD/MIN | 0.51 | 0.32 ΔOD/MIN | 2.17
3 | CCC1(O)c2cc(OC)c(OC)cc2-c2c1c1c(c3ccccc23)OC(c2ccc(OC)cc2)(c2ccc(OC)cc2)C=C1 (centres unmarked) [Comp. Ex. 3, 3,3-di(4-methoxyphenyl)-10,11-dimethoxy-13-hydroxy-13-ethyl-3H-13H-indeno[2,1-f]naphtho[1,2-b]pyran, reference compound] | 71 | 445 | 600 | 0.34 | 0.32 ΔOD/MIN | 0.48 | 0.48 ΔOD/MIN | 1.27
4 | COc1ccc(C2(c3ccc(OC)cc3)C=Cc3c4c(c5cc(OC)c(OC)cc5c3O2)-c2cc(OC)c(OC)cc2C4(C)C)cc1 [Example 1, 3,3-di(4-methoxyphenyl)-6,7,10,11-tetramethoxy-13,13-dimethyl-3H,13H-indeno[2,1-f]naphtho[1,2-b]pyran] | 125 | 445 | 611 | 0.99 | 0.33 ΔOD/MIN | 0.79 | 0.24 ΔOD/MIN | 8.77
5 | COc1cc2c(cc1OC)C(C)(C)c1c3c(c4cc(OC)c(OC)cc4c1-2)OC(c1ccccc1)(c1ccc(N2CCOCC2)cc1)C=C3 (centres unmarked) [Example 2, 3-phenyl-3-(4-morpholinophenyl)-6,7,10,11-tetramethoxy-13,13-dimethyl-3H,13H-indeno[2,1-f]naphtho[1,2-b]pyran] | 103 | 485 | 618 | 1.10 | 0.32 ΔOD/MIN | 1.07 | 0.29 ΔOD/MIN | 14.2
6 | CCC1(O)c2cc(OC)c(OC)cc2-c2c1c1c(c3cc(OC)c(OC)cc23)OC(c2ccc(OC)cc2)(c2ccc(OC)cc2)C=C1 (centres unmarked) [Example 3, 3,3-di(4-methoxyphenyl)-6,7,10,11-tetramethoxy-13-hydroxy-13-ethyl-3H,13H-indeno[2,1-f]naphtho[1,2-b]pyran] | 151 | 460 | 623 | 0.62 | 0.34 ΔOD/MIN | 0.41 | 0.24 ΔOD/MIN | 2.58
7 | COc1ccc(C2(c3ccc(OC)cc3)C=Cc3c4c(c5cc(OC)c(OC)cc5c3O2)-c2ccccc2C4(C)C)cc1 [Example 4, 3,3-di(4-methoxyphenyl)-6,7-dimethoxy-13,13-dimethyl-3H-13H-indeno[2,1-f]naphtho[1,2-b]pyran] | 156 | 455 | 576 | 1.11 | 0.39 ΔOD/MIN | 0.71 | 0.22 ΔOD/MIN | 4.45
8 | CCC1(O)c2ccccc2-c2c1c1c(c3cc(OC)c(OC)cc23)OC(c2ccc(OC)cc2)(c2ccc(OC)cc2)C=C1 (centres unmarked) [Example 5, 3,3-di(4-methoxyphenyl)-6,7-dimethoxy-13-hydroxy-13-ethyl-3H-13H-indeno[2,1-f]naphtho[1,2-b]pyran] | 155 | 458 | 584 | 0.42 | 0.26 ΔOD/MIN | 0.27 | 0.19 ΔOD/MIN | 1.45
9 | CCC1(CC)c2cc(OC)c(OC)cc2-c2c1c1c(c3cc(OC)c(OC)cc23)OC(c2ccc(OC)cc2)(c2ccc(OC)cc2)C=C1 [Example 6, 3,3-di(4-methoxyphenyl)-6,7,10,11-tetramethoxy-13,13-diethyl-3H,13H-indeno[2,1-f]naphtho[1,2-b]pyran] | 140 | 440 | 608 | 1.02 | 0.46 ΔOD/MIN | 0.73 | 0.37 ΔOD/MIN | 5.17
10 | COc1ccc(C2(c3ccc(OC)cc3)C=Cc3c4c(c5cc(OC)c(OC)cc5c3O2)-c2ccccc2C4c2ccccc2)cc1 (centres unmarked) [Example 7, 3,3-di(4-methoxyphenyl)-6,7-dimethoxy-13-phenyl-3H,13H-indeno[2,1-f]naphtho[1,2-b]pyran] | 153 | 460 | 577 | 0.66 | 0.17 ΔOD/MIN | 0.43 | 0.16 ΔOD/MIN | 3.43
